Laboratory results from patent publication US7510825B2, “Kits and methods for detection of apoptotic cells” (NST NeuroSurvival Technologies Ltd, priority 2000, dated 2009).

Tested on: Jurkat cells (T-cell leukemia)
Assay: Binding of DDC and PI to Jurkat cells treated with CD95, confocal microscopy
Format: cell-based, human
Settings: CD95 for 180 minutes; confocal microscope
Protocol: For microscopic analysis the concentration of cells should be within 1-2×10^7/ml. […] If fixation is needed, it should be performed after DDC staining. • 1. Adjusting the cells to 1-2×10^7/ml in buffer. • 2. Transferring 96 μl from the cell suspension to an eppendorf and staining the cells by adding 4 μl from the DDC solution. Incubating for 10-40 minutes at RT protected from light. • 3. A double labeling could be conducted with PI, if desired. In such a case, 1 μl is added from the PI solution. • 4, Placing the cell suspension on a glass slide. Covering the cells with a glass coverslip. Alternatively, for analyzing adherent cells, cells may grow directly on coverslip. Staining the cells by incubation with DDC (4 μl of DDC/96 μl buffer reaction) or 10-40 minutes and PI (1 μl). […] Observing the cells under fluorescent or confocal microscope equipped with the appropriate UV filter (excitation at 360-370 nm, band pass, and emission at 420 nm, barrier filter. Using a Triple filter (Hoechst/FITC/Texas Red) allows concomitant observation of both DDC and PI. Quantitative Assay for DDC Accumulation using Fluorescene Spectroscopy
Jurkat cells (T-cell leukemia) were treated with CD95 for 180 minutes and incubated with DDC followed by incubation with Propidium Iodide (PI) as detailed in DDC protocols IIIC. The cells were analyzed under fluorescent confocal microscope using a UV filter. […]

## CC[N+](C)(CC)CCC[n+]1c(-c2ccccc2)c2cc(N)ccc2c2ccc(N)cc21.[I-].[I-] [PI, Propidium Iodide, reference compound]
  cellular staining pattern in apoptotic cells: Nuclear staining by PI can be seen only in late apoptotic cells
